Tests used:
PD-1/PD-L1 = PD-1/PD-L1 (Homo sapiens, UniProt Q9NZQ7); experiment: PD-1/PD-L1 biochemical protein-protein interaction assay (ALPHA); format: binding; settings: 0.3 nM His tagged PD-L1, 2.5 nM biotinylated Fc-PD-1, 60 minutes at 25° C., read-out: IC50 PD-L1-PD-1 Alpha IC50-mono PD-L1-fcP-D1
In short: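 Extracellular-domain binding of His-tagged PD-L1 (0.3 nM final) to biotinylated Fc-PD-1 (2.5 nM final) was measured by ALPHA in 25 mM Hepes pH 7.4, 150 mM NaCl, 3.4 mM EDTA, 0.005% Tween 20, 0.01% BSA. After 60 min at 25° C, anti-His acceptor and streptavidin donor beads were added; IC50 from four-parameter fits.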

PD-1/PD-L1 interaction = target: T1, PD-1/PD-L1 interaction (Homo sapiens, UniProt Q9NZQ7); experiment: PD-1/PD-L1 NFAT reporter co-culture assay; format: cell-based; settings: Jurkat PD-1 NFAT-luciferase cells co-cultured with aAPC-PD-L1 CHO cells, 6 hrs at 37° C.; read-out: EC50 NFAT Luciferase
T1 construct: expressed in transfected cells; host or cells: CHO cells (aAPC-PD-L1) co-cultured with Jurkat cells overexpressing PD-1 and an NFAT-luciferase reporter
In short: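 Luminescence (ONE-Glo) after 6 h, 37 °C co-culture reports NFAT-luciferase in PD-1 Jurkat cells, which PD-1/PD-L1 engagement suppresses. Partner cells: CHO expressing anti-CD3 and PD-L1. EC50 from four-parameter dose-response fit.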

PD-L1 = target: T2, PD-L1 (Homo sapiens, UniProt Q9NZQ7); experiment: PD-L1/PD-L1 dimerization biochemical protein-protein interaction assay (ALPHA); format: binding; settings: compound-induced PD-L1 dimerization, head prints '1 nM' (0.5 nM His-tagged PD-L1 and 0.5 nM FLAG-tagged PD-L1), read-out: AC50 PDL1 Dimer Alpha 1 nM
T2 construct: determine if they can specifically dimerize the extracellular domains of PD-L1
In short: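 ALPHA proximity assay of compound-induced dimerization of 0.5 nM His-tagged and 0.5 nM FLAG-tagged PD-L1 extracellular domains in Hepes pH 7.4 buffer, 2 h at 25 °C. Anti-His acceptor then anti-FLAG donor beads, 60 min each; AC50 from four-parameter fit.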

PD-1/PD-L1, sequence (Q9NZQ7 19-238 limits assumed): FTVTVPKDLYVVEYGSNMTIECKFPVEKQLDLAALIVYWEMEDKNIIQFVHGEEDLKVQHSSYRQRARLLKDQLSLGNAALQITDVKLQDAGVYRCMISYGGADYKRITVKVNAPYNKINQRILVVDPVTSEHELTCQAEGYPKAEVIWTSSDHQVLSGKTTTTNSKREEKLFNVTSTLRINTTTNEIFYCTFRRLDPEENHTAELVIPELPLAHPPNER
T2 sequence (Q9NZQ7 19-238 limits assumed): as above
T2 sequence (Q9NZQ7 19-238 limits assumed): as above
T1 sequence (Q9NZQ7 19-290): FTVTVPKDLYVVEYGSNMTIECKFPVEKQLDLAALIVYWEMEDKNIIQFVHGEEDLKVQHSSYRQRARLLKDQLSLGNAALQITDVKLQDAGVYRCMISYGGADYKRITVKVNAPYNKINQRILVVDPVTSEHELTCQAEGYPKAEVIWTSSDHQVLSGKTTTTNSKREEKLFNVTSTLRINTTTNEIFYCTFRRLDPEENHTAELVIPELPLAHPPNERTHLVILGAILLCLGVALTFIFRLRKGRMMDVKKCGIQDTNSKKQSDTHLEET

| IC50 (PD-1/PD-L1) | EC50 (PD-1/PD-L1 interaction) | AC50 (PD-L1) | SMILES |
| --- | --- | --- | --- |
| 0.064 nM | 29 nM | 36.7 nM | COc1nc(-c2cccc(-c3cccc4c3CC[C@@H]4Oc3nc(OC)c(CN4CCC[C@@H](C(=O)O)C4)cc3Cl)c2Cl)ccc1CNC[C@@H]1CCC(=O)N1 [Example 758] |
| 0.085 nM | 74 nM | 128 nM | Cc1c(COc2cc(OCc3cncc(C#N)c3)c(CNC[C@@H](O)CC(=O)O)cc2Cl)cccc1-c1cccc(-c2ccc3c(CNC[C@@H](O)CC(=O)O)ccnc3c2)c1C [Example 569] |
| 0.387 nM | 541 nM | 143 nM | COc1nc(-c2cccc(-c3cccc(-c4ccc5c(C[N+](C)(C)C)c[nH]c5c4)c3Cl)c2Cl)ccc1CNC[C@@H]1CCC(=O)N1 [Example 609] |
| 0.136 nM | 788 nM | 165 nM | Cc1c(COc2cc(OCc3cncc(C#N)c3)c(CN[C@@](C)(CO)C(=O)O)cc2Cl)cccc1-c1cccc(-c2ccc(C3CCCN3CCO)cc2)c1C (stereo partly drawn) [Example 374, (2S)-2-((5-chloro-2-((5-cyanopyridin-3-yl)methoxy)-4-((4″-(1-(2-hydroxyethyl)pyrrolidin-2-yl)-2,2′-dimethyl-[1,1′:3′,1″-terphenyl]-3-yl)methoxy)benzyl)amino)-3-hydroxy-2-methylpropanoic acid] |
| 0.064 nM | 165 nM | ≥ 10000 nM | COc1cc(-c2cccc(-c3cccc(-c4cnc(C5=NCCN5)c(OC)c4)c3Cl)c2Cl)cnc1C1=NCCN1 [Example 630] |
| 0.325 nM | 429 nM | 139 nM | CNC(=O)c1cc(-c2cccc(-c3cccc(COc4cc(OCc5cncc(C#N)c5)c(CNC[C@@H](O)CC(=O)O)cc4Cl)c3C)c2C)ccc1OCCNCCO [Example 458] |
| 0.226 nM | 73 nM | 125 nM | Cc1c(COc2cc(OCc3cncc(C#N)c3)c(CNC[C@@H](O)CC(=O)O)cc2Cl)cccc1-c1cccc(-c2ccc3c(CNC[C@@H](O)CC(=O)O)cccc3c2)c1C [Example 293, (S)-4-(((6-(3′-((4-((((S)-3-carboxy-2-hydroxypropyl)amino)methyl)-2-chloro-5-((5-cyanopyridin-3-yl)methoxy)phenoxy)methyl)-2,2′-dimethyl-[1,1′-biphenyl]-3-yl)naphthalen-1-yl)methyl)amino)-3-hydroxybutanoic acid] |
| 0.463 nM | 36 nM | 46 nM | COc1nc(-c2cccc(-c3cccc4c3CC[C@@H]4Oc3nc(OC)c(CNC[C@@H]4CCC(=O)N4)cc3Cl)c2Cl)ccc1CNC[C@@H]1CCC(=O)N1 [Example 734] |
| 0.064 nM | 47 nM | 25.5 nM | Cc1c(COc2cc(OCc3cncc(C#N)c3)c(CNC(C)(C)C(=O)O)cc2Cl)cccc1-c1cccc(-c2ccc(CN(C)C)cc2)c1Br [Example 482] |
| 2.11 nM | 216 nM | 540 nM | Cc1c(COc2cc(OCc3cncc(C#N)c3)c(CNC[C@@H](O)CC(=O)O)cc2Cl)cccc1-c1cccc(-c2ccc3c(CNC[C@@H](O)CC(=O)O)ccc(Cl)c3c2)c1C [Example 359, (S)-4-(((6-(3′-((4-((((S)-3-carboxy-2-hydroxypropyl)amino)methyl)-2-chloro-5-((5-cyanopyridin-3-yl)methoxy)phenoxy)methyl)-2,2′-dimethyl-[1,1′-biphenyl]-3-yl)-4-chloronaphthalen-1-yl)methyl)amino)-3-hydroxybutanoic acid] |
| 0.746 nM | ≥ 50000 nM | 105 nM | COc1nc(-c2cccc(-c3cccc(-c4ccc5c(CN(C)C)c[nH]c5c4)c3Cl)c2Cl)ccc1CNC[C@@H]1CCC(=O)N1 [Example 610] |
| 0.064 nM | 34 nM | 38.6 nM | COc1nc(-c2cccc(-c3cccc4c3CC[C@@H]4Oc3nc(OC)c(CN4CC[C@H](C(=O)O)C4)cc3Cl)c2Cl)ccc1CN1CC(C)(CO)C1 [Example 708] |
| 0.137 nM | 2090 nM | 100 nM | CNCc1cccc(-c2cccc(-c3cccc(COc4cc(OCc5cncc(C#N)c5)c(CN[C@@](C)(CO)C(=O)O)cc4Cl)c3C)c2C)c1 [Example 358, (S)-2-((5-chloro-2-((5-cyanopyridin-3-yl)methoxy)-4-((2,2′-dimethyl-3″-((methylamino)methyl)-[1,1′:3′,1″-terphenyl]-3-yl)methoxy)benzyl)amino)-3-hydroxy-2-methylpropanoic acid] |
| 0.07 nM | 187 nM | 49.7 nM | COc1nc(-c2cccc(-c3cccc(COc4nc(OCc5cncc(C#N)c5)c(CN5CCCC[C@H]5C(=O)O)cc4Br)c3Cl)c2Cl)ccc1C1=NCCN1 [Example 543] |
| 0.064 nM | 57 nM | 75.7 nM | COc1nc(O[C@H]2CCc3c(-c4cccc(-c5cnc(CN6CC7(C6)CN(C(C)=O)C7)c(OC)n5)c4Cl)cccc32)c(Cl)cc1CN1CC[C@@H](C(=O)O)C1 [Example 767] |
| 0.064 nM | 21 nM | 49.4 nM | COc1nc(O[C@H]2CCc3c(-c4cccc(-c5cnc(CN6CC(O)C6)c(OC)n5)c4Cl)cccc32)c(Cl)cc1CN1CC[C@H](C(=O)O)C1 [Example 709] |
| 0.175 nM | 46 nM | 27.5 nM | N#Cc1cncc(COc2nc(O[C@H]3CCc4c(-c5cccc(-c6ccc(OCCNCCO)cc6)c5Cl)cccc43)c(Cl)cc2CNC[C@@H](O)CC(=O)O)c1 [Example 291, (S)-4-(((5-chloro-6-(((S)-4-(2-chloro-4′-(2-((2-hydroxyethyl)amino)ethoxy)-[1,1′-biphenyl]-3-yl)-2,3-dihydro-1H-inden-1-yl)oxy)-2-((5-cyanopyridin-3-yl)methoxy)pyridin-3-yl)methyl)amino)-3-hydroxybutanoic acid] |
| 0.064 nM | 31 nM | 39.3 nM | COc1nc(O[C@H]2CCc3c(-c4cccc(-c5cnc(CN6CC(C)(CO)C6)c(OC)n5)c4Cl)cccc32)c(Cl)cc1CN1CC[C@H](C(=O)O)C1 [Example 707] |
| 0.064 nM | 435 nM | 24.5 nM | CN1CCCC1c1ccc(-c2cccc(-c3cccc4c3CC[C@@H]4Oc3nc(OCc4cncc(C#N)c4)c(CNC(C)(C)C(=O)O)cc3Cl)c2Cl)cc1 (stereo partly drawn) [Example 672] |
| 0.311 nM | 153 nM | 215 nM | Cc1c(COc2cc(OCc3cncc(C#N)c3)c(CNC[C@@H](O)CC(=O)O)cc2Cl)cccc1-c1cccc(-c2ccc(OC[C@@H](N)CO)cc2)c1C [Example 353, (S)-4-((4-((4″-((S)-2-amino-3-hydroxypropoxy)-2,2′-dimethyl-[1,1′:3′,1″-terphenyl]-3-yl)methoxy)-5-chloro-2-((5-cyanopyridin-3-yl)methoxy)benzyl)amino)-3-hydroxybutanoic acid] |
| 0.865 nM | 84 nM | 75.7 nM | COc1nc(O[C@H]2CCc3c(-c4cccc(-c5ccc(CNC[C@@H]6CCC(=O)N6)c(F)c5)c4Cl)cccc32)c(Br)cc1CNC[C@@H]1CCC(=O)N1 [Example 790] |
| 0.17 nM | ≥ 50000 nM | 265 nM | COc1nc(-c2cccc(-c3cccc(-c4ccn5cc(CN(C)C)nc5c4)c3Cl)c2Cl)ccc1CN(C)C [Example 617] |
| 1.29 nM | 246 nM | 537 nM | COc1nc(-c2cc(F)cc(-c3cccc4c3CC[C@@H]4Oc3ccc(CNC[C@@H]4CCC(=O)N4)c(OCc4cncc(C#N)c4)n3)c2Cl)ccc1CNC[C@@H]1CCC(=O)N1 [Example 800] |
| 0.08 nM | 290 nM | 167 nM | Cc1c(COc2cc(OCc3cncc(C#N)c3)c(CNC[C@@H](O)CC(=O)O)cc2Cl)cccc1-c1cccc(-c2ccc(CNC[C@@H](O)CC(=O)O)c(OCC#N)c2)c1C [Example 433] |
| 1.88 nM | 118 nM | 274 nM | Cc1c(COc2cc(OCc3cncc(C#N)c3)c(CN[C@@H]3CCC[C@@H]3O)cc2Cl)cccc1-c1cccc(-c2ccc(CN3CC(CC(=O)O)C3)cc2)c1C [Example 368, 2-(1-((3″-((2-chloro-5-((5-cyanopyridin-3-yl)methoxy)-4-((((1R,2S)-2-hydroxycyclopentyl)amino)methyl)phenoxy)methyl)-2′,2″-dimethyl-[1,1′:3′,1″-terphenyl]-4-yl)methyl)azetidin-3-yl)acetic acid] |
| 0.102 nM | 162 nM | 126 nM | COc1nc(OCc2cccc(-c3cccc(COc4nc(OC)c(CNC[C@@H](O)CC(=O)O)cc4Br)c3C#N)c2Cl)c(Br)cc1CNC[C@@H](O)CC(=O)O [Example 562] |
| 0.295 nM | 129 nM | ≥ 10000 nM | COc1cc(OCc2cccc(-c3cccc(COc4cc(OC)c(CNC[C@@H](O)CC(=O)O)cc4C#N)c3C)c2C)c(C#N)cc1CNC[C@@H](O)CC(=O)O [Example 523] |
| 0.269 nM | 1230 nM | 182 nM | Cc1c(COc2cc(OCc3cncc(C#N)c3)c(CNC[C@@H](O)CC(=O)O)cc2Cl)cccc1-c1cccc(-c2ccc(OCCNCCO)c(C(N)=O)c2)c1C [Example 456] |

Reference: patent US12590062B2, “PD-1/PD-L1 inhibitors” (Gilead Sciences, Inc., priority 2017, dated 2026)
